Laboratory results reported in PubChem BioAssay (NCI).
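Briefly, cells in 96-well plates were exposed to five compound concentrations for 48 h, and endpoints were estimated by linear interpolation. Abbreviation: GI50, concentration required for 50% inhibition of growth. TGI marks complete inhibition of growth.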

Columns and labels:
Test in all cases: DTP human tumour cell line panel, 48 h
786-0 renal = system: 786-0 renal
A498 renal = system: A498 renal
A549 NSCLC = system: A549 NSCLC
ACHN renal = system: ACHN renal
BT-549 breast = system: BT-549 breast
CAKI-1 renal = system: CAKI-1 renal
CCRF-CEM leukemia = system: CCRF-CEM leukemia
COLO 205 colon = system: COLO 205 colon
DU-145 prostate = system: DU-145 prostate
EKVX NSCLC = system: EKVX NSCLC
HCC-2998 colon = system: HCC-2998 colon
HCT-116 colon = system: HCT-116 colon
HCT-15 colon = system: HCT-15 colon
HL-60(TB) leukemia = system: HL-60(TB) leukemia
HOP-62 NSCLC = system: HOP-62 NSCLC
HOP-92 NSCLC = system: HOP-92 NSCLC
HS 578T breast = system: HS 578T breast
HT29 colon = system: HT29 colon
IGROV1 ovarian = system: IGROV1 ovarian
K-562 leukemia = system: K-562 leukemia
KM12 colon = system: KM12 colon
LOX IMVI melanoma = system: LOX IMVI melanoma
M14 melanoma = system: M14 melanoma
MALME-3M melanoma = system: MALME-3M melanoma
MCF7 breast = system: MCF7 breast
MDA-MB-231 breast = system: MDA-MB-231 breast
MDA-MB-435 = system: MDA-MB-435
MOLT-4 leukemia = system: MOLT-4 leukemia
NCI-H226 lung = system: NCI-H226 lung
NCI-H23 lung = system: NCI-H23 lung
NCI-H460 lung = system: NCI-H460 lung
NCI-H522 lung = system: NCI-H522 lung
NCI/ADR-RES ovarian = system: NCI/ADR-RES ovarian
OVCAR-3 ovarian = system: OVCAR-3 ovarian
OVCAR-4 ovarian = system: OVCAR-4 ovarian
OVCAR-5 ovarian = system: OVCAR-5 ovarian
OVCAR-8 ovarian = system: OVCAR-8 ovarian
PC-3 prostate = system: PC-3 prostate
RPMI-8226 leukemia = system: RPMI-8226 leukemia
RXF 393 renal = system: RXF 393 renal
SF-268 CNS = system: SF-268 CNS
SF-295 CNS = system: SF-295 CNS
SF-539 CNS = system: SF-539 CNS
SK-MEL-2 melanoma = system: SK-MEL-2 melanoma
SK-MEL-28 melanoma = system: SK-MEL-28 melanoma
SK-MEL-5 melanoma = system: SK-MEL-5 melanoma
SK-OV-3 ovarian = system: SK-OV-3 ovarian
SN12C renal = system: SN12C renal
SNB-19 CNS = system: SNB-19 CNS
SNB-75 CNS = system: SNB-75 CNS
SR leukemia = system: SR leukemia
SW-620 colon = system: SW-620 colon
T-47D breast = system: T-47D breast
TK-10 renal = system: TK-10 renal
U251 CNS = system: U251 CNS
UACC-257 melanoma = system: UACC-257 melanoma
UACC-62 melanoma = system: UACC-62 melanoma

SMILES: Cc1nc([C@H]2CC[C@H]3[C@@H]4CCC5=CC(=O)CC[C@]5(C)[C@H]4CC[C@]23C)cs1
- GI50 (786-0 renal): > 100 µM
- TGI (786-0 renal): > 100 µM
- GI50 (A498 renal): > 53.3 µM
- TGI (A498 renal): > 100 µM
- GI50 (A549 NSCLC): 5.25 µM
- TGI (A549 NSCLC): > 100 µM
- GI50 (ACHN renal): 7.72 µM
- TGI (ACHN renal): > 100 µM
- GI50 (BT-549 breast): 1.97 µM
- TGI (BT-549 breast): 8.97 µM
- GI50 (CAKI-1 renal): 2.3 µM
- TGI (CAKI-1 renal): > 100 µM
- GI50 (CCRF-CEM leukemia): 7.26 µM
- TGI (CCRF-CEM leukemia): > 100 µM
- GI50 (COLO 205 colon): 5.31 µM
- TGI (COLO 205 colon): > 100 µM
- GI50 (DU-145 prostate): > 100 µM
- TGI (DU-145 prostate): > 100 µM
- GI50 (EKVX NSCLC): 1.65 µM
- TGI (EKVX NSCLC): > 100 µM
- GI50 (HCC-2998 colon): 6.58 µM
- TGI (HCC-2998 colon): > 100 µM
- GI50 (HCT-116 colon): 3.47 µM
- TGI (HCT-116 colon): > 100 µM
- GI50 (HCT-15 colon): 4.97 µM
- TGI (HCT-15 colon): > 100 µM
- GI50 (HL-60(TB) leukemia): 1.53 µM
- TGI (HL-60(TB) leukemia): > 100 µM
- GI50 (HOP-62 NSCLC): > 100 µM
- TGI (HOP-62 NSCLC): > 100 µM
- GI50 (HOP-92 NSCLC): > 28.9 µM
- TGI (HOP-92 NSCLC): > 100 µM
- GI50 (HS 578T breast): > 66.1 µM
- TGI (HS 578T breast): > 100 µM
- GI50 (HT29 colon): 5.15 µM
- TGI (HT29 colon): > 100 µM
- GI50 (IGROV1 ovarian): > 40.3 µM
- TGI (IGROV1 ovarian): > 100 µM
- GI50 (K-562 leukemia): 4.7 µM
- TGI (K-562 leukemia): > 100 µM
- GI50 (KM12 colon): 4.72 µM
- TGI (KM12 colon): > 100 µM
- GI50 (LOX IMVI melanoma): 5.09 µM
- TGI (LOX IMVI melanoma): > 100 µM
- GI50 (M14 melanoma): 15.9 µM
- TGI (M14 melanoma): > 100 µM
- GI50 (MALME-3M melanoma): 15.2 µM
- TGI (MALME-3M melanoma): > 100 µM
- GI50 (MCF7 breast): 2.78 µM
- TGI (MCF7 breast): > 100 µM
- GI50 (MDA-MB-231 breast): > 26.7 µM
- TGI (MDA-MB-231 breast): > 100 µM
- GI50 (MDA-MB-435): 5.02 µM
- TGI (MDA-MB-435): > 100 µM
- GI50 (MOLT-4 leukemia): 2.25 µM
- TGI (MOLT-4 leukemia): > 100 µM
- GI50 (NCI-H226 lung): 31.7 µM
- TGI (NCI-H226 lung): > 100 µM
- GI50 (NCI-H23 lung): 2.58 µM
- TGI (NCI-H23 lung): > 100 µM
- GI50 (NCI-H460 lung): 2.67 µM
- TGI (NCI-H460 lung): > 100 µM
- GI50 (NCI-H522 lung): 7.01 µM
- TGI (NCI-H522 lung): > 100 µM
- GI50 (NCI/ADR-RES ovarian): 3.63 µM
- TGI (NCI/ADR-RES ovarian): > 100 µM
- GI50 (OVCAR-3 ovarian): > 22.6 µM
- TGI (OVCAR-3 ovarian): > 100 µM
- GI50 (OVCAR-4 ovarian): 3.02 µM
- TGI (OVCAR-4 ovarian): > 100 µM
- GI50 (OVCAR-5 ovarian): > 100 µM
- TGI (OVCAR-5 ovarian): > 100 µM
- GI50 (OVCAR-8 ovarian): 4.62 µM
- TGI (OVCAR-8 ovarian): > 100 µM
- GI50 (PC-3 prostate): 3.9 µM
- TGI (PC-3 prostate): > 100 µM
- GI50 (RPMI-8226 leukemia): 0.531 µM
- GI50 (RXF 393 renal): 10.6 µM
- TGI (RXF 393 renal): > 100 µM
- GI50 (SF-268 CNS): > 27.2 µM
- TGI (SF-268 CNS): > 100 µM
- GI50 (SF-295 CNS): 2.21 µM
- TGI (SF-295 CNS): > 100 µM
- GI50 (SF-539 CNS): 18.3 µM
- TGI (SF-539 CNS): > 100 µM
- GI50 (SK-MEL-2 melanoma): > 100 µM
- TGI (SK-MEL-2 melanoma): > 100 µM
- GI50 (SK-MEL-28 melanoma): > 100 µM
- TGI (SK-MEL-28 melanoma): > 100 µM
- GI50 (SK-MEL-5 melanoma): 1.45 µM
- TGI (SK-MEL-5 melanoma): > 100 µM
- GI50 (SK-OV-3 ovarian): > 100 µM
- TGI (SK-OV-3 ovarian): > 100 µM
- GI50 (SN12C renal): > 100 µM
- TGI (SN12C renal): > 100 µM
- GI50 (SNB-19 CNS): > 100 µM
- TGI (SNB-19 CNS): > 100 µM
- GI50 (SNB-75 CNS): > 27 µM
- TGI (SNB-75 CNS): > 100 µM
- GI50 (SR leukemia): 0.584 µM
- GI50 (SW-620 colon): 7.66 µM
- TGI (SW-620 colon): > 100 µM
- GI50 (T-47D breast): 1.83 µM
- TGI (T-47D breast): > 100 µM
- GI50 (TK-10 renal): 3.33 µM
- TGI (TK-10 renal): > 100 µM
- GI50 (U251 CNS): 5.27 µM
- TGI (U251 CNS): > 100 µM
- GI50 (UACC-257 melanoma): 3.31 µM
- TGI (UACC-257 melanoma): > 100 µM
- GI50 (UACC-62 melanoma): 4.1 µM
- TGI (UACC-62 melanoma): > 100 µM
